Publication PMC12097015, “Development of MDM2‐Targeting PROTAC for Advancing Bone Regeneration” (Advanced Science, 2025)
Where two headings read alike, the source gives them in different places.

Tests used:
[1] = Pharmacokinetic study in BALB/c mice; format: in vivo; conditions: mouse, plasma; for MRT last: read-out: MRT0–t; for MRT inf: read-out: MRT0–∞
Experimental: Pharmacokinetic (PK) studies of CL144 were conducted by Medicilon Preclinical Research (Shanghai) LLC. Six BALB/c mice were divided into two groups, and CL144 was administered by tail vein injection (iv; 1.0 mg kg^−1) or gavage (po; 10 mg kg^−1). Blood samples were collected from the submandibular vein at 0.083, 0.25, 0.5, 1, 4, and 24 h for the iv group and at 0.25, 0.5, 1, 3, 6, and 24 h for the po group. Blood samples were centrifuged at 6800 x g for 6 min at 2–8 °C within 1 h after collection and stored at ≈−80 °C. Plasma samples were analyzed by LC‐MS/MS (TQ6500+), and PK parameters were calculated using the FDA‐certified pharmacokinetic program Phoenix WinNonlin 7.0 (Pharsight, USA).

bone marrow = assay: Immunohistochemistry of femur bone marrow in the OVX model; format: in vivo; conditions: OVX mice femur
Experimental: ‐Immunohistochemistry: Decalcified femurs were fixed in 4% paraformaldehyde (PFA) at 4 °C for 24 h, rinsed three times with phosphate‐buffered saline (PBS), and decalcified in 12.5 mM EDTA (pH 8.0) for 14 days. The specimens were dehydrated through a graded ethanol series (70%, 80%, 95%, 100%) and embedded in paraffin. Longitudinal sections (3 µm thick) were prepared using a microtome, mounted on glass slides, and dried at 55 °C. For deparaffinization, slides were treated with xylene (four 5‐min treatments) and rehydrated through descending ethanol concentrations (100%, 95%, 80%, 70%) in 2‐min intervals. Immunohistochemistry was performed with a ready‐to‐use IHC/ICC kit (BioVision, Inc.). Sections were incubated overnight at room temperature with primary antibodies (1:100) against MDM2, p53, Bcl‐2, and cleaved caspase‐3, followed by a 20‐min incubation with HRP‐conjugated anti‐mouse IgG polymer. After PBS washes, antigen‐antibody complexes were visualized using 3,3′‐diaminobenzidine (DAB) for 10 min, and sections were counterstained with hematoxylin for 1 minute. The stained sections were imaged using a Slide Scanner (Zeiss, Germany).

## COc1ccc(C2=N[C@H](c3ccc(Cl)cc3)[C@H](c3ccc(Cl)cc3)N2C(=O)N2CCN(CC(=O)NCCCCCCCCOc3cccc4c3C(=O)N(C3CCC(=O)NC3=O)C4=O)C(=O)C2)c(OC(C)C)c1 (stereo in doubt) [CL144]
[1]; 1.0 mg kg^−1 (iv)
  AUC(0-inf): 546 ± 39 ng·h/mL
  AUC(0-t): 532 ± 35 ng·h/mL
  Cmax: 1630 ± 111 ng/mL
  Tmax: 4.98 min
  clearance: 30.6 ± 2.1 mL/min/kg
  half-life: 70.8 ± 6.6 min
  MRT last: 16.8 ± 1.2 min
  MRT inf: 0.42 ± 0.06 h
[1]; 1.0 mg kg^−1 (iv), read-out: V ss
  Vd: 0.774 ± 0.092 L/kg
[1]; 1 mg kg^−1, intravenous administration
  AUC(0-t): 532 ng·h/mL
[1]; 10 mg kg^−1 (po)
  AUC(0-inf): 256 ± 49 ng·h/mL
  AUC(0-t): 252 ± 44 ng·h/mL
  Cmax: 106 ± 9 ng/mL
  Tmax: 49.8 ± 17.4 min
  bioavailability: 4.74 ± 0.83%
  half-life: 55.8 ± 15.6 min
  MRT last: 94.8 ± 21.6 min
  MRT inf: 1.67 ± 0.46 h
Bone marrow; IHC
  expression of apoptosis markers Bcl‐2 or cleaved caspase‐3 (bone marrow toxicity): no corresponding increase
Bone marrow; compared to Con and DMSO group
  MDM2 expression (IHC): effectively reduced MDM2 expression
  p53 expression (IHC): significantly increased p53 expression
